Measurements published in ChEMBL document CHEMBL5325401, “Computer-aided identification, synthesis, and biological evaluation of DNA polymerase η inhibitors for the treatment of cancer” (Eur J Med Chem, 2023).
Values after ≈ are worked out from the molar mass of the structure shown.

What was measured:
DNA polymerase eta [1] = target: T1, DNA polymerase eta (Homo sapiens, UniProt Q9Y253); assay: (§1) Inhibition of C-terminal 6xHis-tagged human DNA polymerase eta (1 to 511 residues) expressed in Escherichia coli BL21 DE3 using 5'-IRD700-GCAGGTCGACTCCAAAG-3' primer/ 5'-TCGGTACCGGGTTAGCCTTTGGAGTCGACCTGC-3' template as DNA substrate incubated for 60 mins in presence of Mg2+ by bromophenol blue staining based assay
T1 sequence (Q9Y253 whole entry): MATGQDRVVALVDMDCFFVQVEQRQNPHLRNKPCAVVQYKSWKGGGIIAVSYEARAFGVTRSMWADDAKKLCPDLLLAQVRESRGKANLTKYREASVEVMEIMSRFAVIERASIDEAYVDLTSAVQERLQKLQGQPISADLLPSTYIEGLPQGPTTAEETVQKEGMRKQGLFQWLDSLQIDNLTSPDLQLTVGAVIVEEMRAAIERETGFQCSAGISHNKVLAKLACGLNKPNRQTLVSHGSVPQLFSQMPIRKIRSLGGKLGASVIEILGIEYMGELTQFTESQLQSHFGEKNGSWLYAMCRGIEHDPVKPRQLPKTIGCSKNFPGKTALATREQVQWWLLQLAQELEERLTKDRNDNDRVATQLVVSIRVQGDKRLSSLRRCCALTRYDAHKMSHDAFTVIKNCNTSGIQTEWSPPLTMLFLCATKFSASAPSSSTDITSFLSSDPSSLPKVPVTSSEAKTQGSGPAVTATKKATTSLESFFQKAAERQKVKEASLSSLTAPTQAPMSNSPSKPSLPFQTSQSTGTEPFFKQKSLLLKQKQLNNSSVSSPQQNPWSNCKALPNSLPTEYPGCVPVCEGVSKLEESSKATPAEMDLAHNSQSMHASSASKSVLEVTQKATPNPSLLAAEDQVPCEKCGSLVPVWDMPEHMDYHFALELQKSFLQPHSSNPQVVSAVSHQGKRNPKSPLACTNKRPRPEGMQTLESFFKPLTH

[2] = Inhibition of DNA polymerase (unknown origin); set-up: species or system Homo sapiens
[3] = Metabolic stability in mouse plasma assessed as half life at 2 uM incubated upto 120 mins by UPLC/MS analysis; format: ADME, cell-free
[4] = Metabolic stability in mouse liver microsome assessed as half life at 4.6 uM incubated upto 60 mins by LC/MS-MS analysis; format: ADME; details: liver microsomes
[5] = Kinetic solubility of compound in neutral buffer at pH 7.4 at 250 uM measured after 24 hrs by UPLC/MS analysis; format: physicochemical; details: read-out: Kinetic_solubility
[6] = target: T2, DNA polymerase eta (Homo sapiens) (UniProt Q9Y253); assay: as §1, with “substrate at 1 uM” for “substrate”, “assay relative to control” for “assay”
T2 sequence (whole entry): T1 sequence (Q9Y253 whole entry)

[7] = target: T2, DNA polymerase eta (Homo sapiens); assay: as §1, with “substrate at 100 uM” for “substrate”, “assay relative to control” for “assay”
DNA polymerase eta [8] = target: T1, DNA polymerase eta; assay: Inhibition of 6xHis-tagged human DNA polymerase eta (1 to 437 residues) expressed in Escherichia coli BL21 DE3 assessed as displacement of reporter strand using 5'-TTT TTT TTG C-TAMRA-3' reporter/5'-TCA CCC TCG TAC GAC TCT T-3' primer/5'-BHQ2-GCAAAAAAAAAAGAGTCGTACGAGGGTGA-3' template of 1:1.5:1.5 as DNA substrate preincubated for 5 to 10 mins followed by substrate addition measured immediately in presence of dTTP/MgCl2 by fluorescence based assay
DNA polymerase eta [9] = target: T1, DNA polymerase eta; assay: Inhibition of human DNA polymerase eta (1 to 437 residues) using 5'-TTT TTT TTG C-TAMRA-3' reporter/5'-(FAM-TTT)-GGGGGAAGGATTC-3' primer/5'-TCACGGAATCCTTCCCCC-3' template as DNA substrate preincubated for 5 to 10 mins followed by DNA substrate addition measured immediately in presence of dTTP/MgCl2 by fluorescence based assay

SMILES	IC50 (DNA polymerase eta [1])	other results
O=c1cc(-c2ccccc2)oc2cc(O)cc(O)c12 [CHRYSIN]	14.8 µM	
COc1cccc2oc(-c3ccccc3C)cc(=O)c12	> 100 µM	
O=C(O)C1=CC(=C(c2ccc(O)c(C(=O)O)c2)c2ccc(O)c(C(=O)O)c2)C=CC1=O [AURINTRICARBOXYLIC ACID]		IC50 [2]: 0.4 µM
O=c1cc(-c2ccccc2)oc2cc(O)c(O)c(O)c12 [BAICALEIN]	11.8 µM	half-life at 2 µM [3]: > 2 h; half-life at 4.6 µM [4]: 0.683 h; solubility kinetic at 24 h, 250 µM [5]: 12 µM (≈ 3.24 µg/mL)
O=C(O)c1cc(-c2cc(=O)c3c(O)cc(O)cc3o2)ccc1O	7.7 µM	
CCCCc1c(-c2ccc(O)c(O)c2)oc2cc(O)cc(O)c2c1=O	> 100 µM	
COc1cc(O)c2c(=O)cc(-c3ccc4c(c3)OC(F)(F)O4)oc2c1	> 100 µM	
O=C(O)CCc1cc(=O)c2c(O)cc(O)cc2o1	> 100 µM	
O=c1cc(-c2ccc(O)c(O)c2)oc2cc(O)ccc12	27 µM	
O=c1cc(-c2ccc(O)c(O)c2)oc2cc(O)cc(O)c12 [LUTEOLIN]	12.7 µM	half-life at 2 µM [3]: > 2 h; half-life at 4.6 µM [4]: > 1 h; inhibition [6]: 49.9%; inhibition [7]: 95%; solubility kinetic at 24 h, 250 µM [5]: 21 µM (≈ 6.01 µg/mL)
O=c1c(O)c(-c2ccc(O)cc2)oc2cc(O)cc(O)c12 [KAEMPFEROL]	12.7 µM	
O=c1cc(-c2ccc(O)c(O)c2)oc2cccc(O)c12	8.7 µM	half-life at 2 µM [3]: > 2 h; half-life at 4.6 µM [4]: > 1 h; solubility kinetic at 24 h, 250 µM [5]: 9 µM (≈ 2.43 µg/mL)
O=c1cc(-c2ccc3c(c2)OC(F)(F)O3)oc2cc(O)cc(O)c12	> 100 µM	
O=c1cc(-c2ccc(O)c(O)c2)oc2cc(F)cc(O)c12	13.8 µM	half-life at 2 µM [3]: > 2 h; half-life at 4.6 µM [4]: > 1 h; solubility kinetic at 24 h, 250 µM [5]: < 1 µM
COc1cccc2oc(-c3ccc(O)cc3C)cc(=O)c12	98.3 µM	
O=C(Nc1ccc(O)c(O)c1)c1cc(=O)c2c(O)cccc2o1	26.5 µM	
O=c1c(-c2ccc(O)cc2)coc2cc(O)cc(O)c12 [GENISTEIN]	92.4 µM	
O=c1cc(Cc2ccc(O)c(O)c2)oc2cccc(O)c12	> 100 µM	
COc1cccc2oc(-c3ccccc3F)cc(=O)c12	> 100 µM	

SMILES	IC50 (DNA polymerase eta [1])	other results
O=c1cc(-c2ccc(O)c(O)c2)oc2ccccc12	30.5 µM	
O=c1cc(CCc2ccc(O)c(O)c2)oc2cccc(O)c12	> 100 µM	
O=c1cc(/C=C/c2ccc(O)c(O)c2)oc2cccc(O)c12	> 100 µM	
CCCc1c(-c2ccc(O)c(O)c2)oc2cc(O)cc(O)c2c1=O	87.1 µM	
COc1ccc(-c2cc(=O)c3c(OC)c(OC)c(OC)cc3o2)cc1OC [SINENSETIN]	> 100 µM	
COc1cc(O)cc2oc(-c3ccc(O)c(O)c3)cc(=O)c12	10.2 µM	half-life at 2 µM [3]: > 2 h; half-life at 4.6 µM [4]: > 1 h; solubility kinetic at 24 h, 250 µM [5]: 87 µM (≈ 26.1 µg/mL)
CCOc1c(-c2ccc(O)c(O)c2)oc2cc(O)cc(O)c2c1=O	33.5 µM	
O=c1cc(-c2cccc(O)c2)oc2cc(O)cc(O)c12	5 µM	half-life at 2 µM [3]: > 2 h; half-life at 4.6 µM [4]: 0.183 h; solubility kinetic at 24 h, 250 µM [5]: 6 µM (≈ 1.62 µg/mL)
CCCCOc1c(-c2ccc(O)c(O)c2)oc2cc(O)cc(O)c2c1=O	62.4 µM	
Cc1c(-c2ccc(O)c(O)c2)oc2cc(O)cc(O)c2c1=O	84.6 µM	
COc1cccc2oc(-c3ccccc3C(F)(F)F)cc(=O)c12	> 100 µM	
O=C1NC(=S)NC(=O)C1=Cc1cn(C(=O)c2ccc3ccccc3c2)c2ccc(Cl)cc12		IC50 (DNA polymerase eta [8]): 16 µM
O=c1cc(-c2ccc(O)cc2)oc2cc(O)cc(O)c12 [APIGENIN]	22.2 µM	half-life at 2 µM [3]: > 2 h; half-life at 4.6 µM [4]: 0.133 h; solubility kinetic at 24 h, 250 µM [5]: 13 µM (≈ 3.51 µg/mL)
O=c1c(O)c(-c2ccc(O)c(O)c2)oc2cc(O)cc(O)c12 [QUERCETIN]	15.8 µM	half-life at 2 µM [3]: 0.117 h; half-life at 4.6 µM [4]: > 1 h; solubility kinetic at 24 h, 250 µM [5]: 16 µM (≈ 4.84 µg/mL)
O=c1c(OCCO)c(-c2ccc(O)c(O)c2)oc2cc(O)cc(O)c12	87.5 µM	
O=C1NC(=S)NC(=O)C1=Cc1cn(Cc2ccc3ccccc3c2)c2ccc(Cl)cc12		IC50 (DNA polymerase eta [9]): 8 µM
Cc1cc(=O)c2c(CC(=O)CC(O)CC(=O)O)cccc2o1 (racemic)		inhibition [6]: 22.8%; inhibition [7]: 100%
COc1c(-c2ccc(O)cc2)oc2cc(O)cc(O)c2c1=O [ISOKAEMPFERIDE]	16.1 µM	
